From US10105357B2, “Indication of antibiotic drugs for preparation of cancer inhibition pharmaceutical composition” (LAUNX BIOMEDICAL CO., LTD., priority 2014, dated 2018)
Where “and” joins values, the source holds several entries; their conditions need not be identical. Equal entries are not always repeated. Structures can show the parent of a compound that is named as a salt. Where two headings read alike, the source gives them in different places.

Experiments:
cancer cell lines = assay: Cell viability analysis (WST-1) on cancer cell lines; format: cell-based, human; settings: drug 10 μM, 72 hours, WST-1; Table 3
[1] = tested on: HI650 (Lung Adenocarcinoma); assay: Cell viability analysis, lung cancer HI650; format: cell-based, human; settings: Homo sapiens, NCI-H1650, 72 h
[2] = tested on: A549 (Lung Adenocarcinoma); assay: Cell viability analysis, lung cancer A549; format: cell-based, human; settings: Homo sapiens, A549, 72 h
[3] = tested on: AGS (Gastric Adenocarcinoma); assay: Cell viability analysis, gastric cancer AGS; format: cell-based, human; settings: Homo sapiens, 72 h
[4] = tested on: MKN-45 (Gastric Adenocarcinoma); assay: Cell viability analysis, gastric cancer MKN-45; format: cell-based, human; settings: Homo sapiens, MKN-45, 72 h
[5] = tested on: HepG2 (Hepatocellular Carcinoma); assay: Cell viability analysis, hepatic cancer HepG2; format: cell-based, human; settings: Homo sapiens, HepG2, 72 h
[6] = tested on: Hep3B (hepatocellular carcinoma); assay: Cell viability analysis, hepatic cancer Hep3B; format: cell-based, human; settings: Homo sapiens, Hep3B, 72 h, read-out: The results of antibiotic drug inhibiting cancer cell lines (cell viability analysis), Hep3B
[7] = tested on: LoVo (Colorectal Adenocarcinoma); assay: Cell viability analysis, colon cancer LoVo; format: cell-based, human; settings: Homo sapiens, LoVo, 72 h
[8] = tested on: A375 (Amelanotic Melanoma); assay: Cell viability analysis, skin cancer A375; format: cell-based, human; settings: Homo sapiens, A-375, 72 h
[9] = tested on: BCC (basal cell carcinoma); assay: Cell viability analysis, skin cancer BCC; format: cell-based, human; settings: Homo sapiens, 72 h, read-out: The results of antibiotic drug inhibiting cancer cell lines (cell viability analysis), BCC
[10] = tested on: HeLa (Cervix Adenocarcinoma); assay: Cell viability analysis, cervical cancer HeLa; format: cell-based, human; settings: Homo sapiens, HeLa, 72 h
[11] = tested on: C-33A (Cervical carcinoma); assay: Cell viability analysis, cervical cancer C-33A; format: cell-based, human; settings: Homo sapiens, C-33-A, 72 h, read-out: The results of antibiotic drug inhibiting cancer cell lines (cell viability analysis), C-33A
[12] = tested on: PC3 (p53−) (Prostate Adenocarcinoma); assay: Cell viability analysis, prostate cancer PC3; format: cell-based, human; settings: Homo sapiens, 72 h
[13] = tested on: TSGH-8301 (Urinary Bladder Carcinoma); assay: Cell viability analysis, bladder cancer TSGH-8301; format: cell-based, human; settings: Homo sapiens, 72 h
T24 = assay: Cell viability analysis, bladder cancer T24; format: cell-based, human; settings: Homo sapiens, T-24, 72 h, read-out: The results of antibiotic drug inhibiting cancer cell lines (cell viability analysis), T24
[14] = tested on: MDA-MB-231 (Mammary Gland, Adenocarcinoma); assay: Cell viability analysis, breast cancer MDA-MB-231; format: cell-based, human; settings: Homo sapiens, MDA-MB-231, 72 h, read-out: The results of antibiotic drug inhibiting cancer cell lines (cell viability analysis), MDA-MB231
BxPC-3 = assay: Cell viability analysis, pancreatic cancer BxPC-3; format: cell-based, human; settings: Homo sapiens, BXPC-3, 72 h, read-out: The results of antibiotic drug inhibiting cancer cell lines (cell viability analysis), BxPC-3
AsPC-1 = assay: Cell viability analysis, pancreatic cancer AsPC-1; format: cell-based, human; settings: Homo sapiens, ASPC1, 72 h, read-out: The results of antibiotic drug inhibiting cancer cell lines (cell viability analysis), AsPC-1
NIH: OVCAR-3 = assay: Cell viability analysis, ovarian cancer NIH: OVCAR-3; format: cell-based, human; settings: Homo sapiens, OVCAR-3, 72 h, read-out: The results of antibiotic drug inhibiting cancer cell lines (cell viability analysis), NIH-OVCAR-3
TOV-21G = assay: Cell viability analysis, ovarian cancer TOV-21G; format: cell-based, human; settings: Homo sapiens, TOV21G, 72 h, read-out: The results of antibiotic drug inhibiting cancer cell lines (cell viability analysis), TOV-21G
[15] = tested on: SAS (Tongue squamous cell carcinoma); assay: Cell viability analysis, tongue cancer SAS; format: cell-based, human; settings: Homo sapiens, 72 h, read-out: The results of antibiotic drug inhibiting cancer cell lines (cell viability analysis), SAS
U-2OS = assay: Cell viability analysis, osteosarcoma U-2OS; format: cell-based, human; settings: Homo sapiens, U2OS, 72 h, read-out: The results of antibiotic drug inhibiting cancer cell lines (cell viability analysis), U2OS
[16] = tested on: HL-60 (Acute Promyelocytic Leukemia); assay: Cell viability analysis, leukemia HL-60; format: cell-based, human; settings: Homo sapiens, HL-60, 72 h, read-out: cell viability (survival rate), HL-60, drug 10 μM, 72 hours, WST-1, OD450 nm
[17] = tested on: HCT116 (p53+) (Colorectal Carcinoma)
[18] = read-out: The results of antibiotic drug inhibiting cancer cell lines (cell viability analysis), H1650, H1650, repeated experiment
[19] = read-out: cell viability (survival rate), H1650, drug 10 μM, 72 hours, WST-1, OD450 nm
[20] = read-out: The results of antibiotic drug inhibiting cancer cell lines (cell viability analysis), A549, A549, repeated experiment
[21] = read-out: cell viability (survival rate), A549, drug 10 μM, 72 hours, WST-1, OD450 nm
[22] = read-out: The results of antibiotic drug inhibiting cancer cell lines (cell viability analysis), AGS, repeated experiment
[23] = read-out: cell viability (survival rate), AGS, drug 10 μM, 72 hours, WST-1, OD450 nm
[24] = read-out: The results of antibiotic drug inhibiting cancer cell lines (cell viability analysis), MKN-45, MKN-45, repeated experiment
[25] = read-out: cell viability (survival rate), MKN-45, drug 10 μM, 72 hours, WST-1, OD450 nm
[26] = read-out: The results of antibiotic drug inhibiting cancer cell lines (cell viability analysis), HepG2, HepG2, repeated experiment
[27] = read-out: cell viability (survival rate), HepG2, drug 10 μM, 72 hours, WST-1, OD450 nm
[28] = read-out: The results of antibiotic drug inhibiting cancer cell lines (cell viability analysis), LoVo, repeated experiment
[29] = read-out: cell viability (survival rate), LoVo, drug 10 μM, 72 hours, WST-1, OD450 nm
[30] = read-out: The results of antibiotic drug inhibiting cancer cell lines (cell viability analysis), A375, A375, repeated experiment
[31] = read-out: cell viability (survival rate), A375, drug 10 μM, 72 hours, WST-1, OD450 nm
[32] = read-out: The results of antibiotic drug inhibiting cancer cell lines (cell viability analysis), HeLa, repeated experiment
[33] = read-out: cell viability (survival rate), HeLa, drug 10 μM, 72 hours, WST-1, OD450 nm
[34] = read-out: The results of antibiotic drug inhibiting cancer cell lines (cell viability analysis), PC-3, PC-3, repeated experiment
[35] = read-out: cell viability (survival rate), PC3, drug 10 μM, 72 hours, WST-1, OD450 nm
[36] = read-out: The results of antibiotic drug inhibiting cancer cell lines (cell viability analysis), TSGH-8301, TSGH-8301, repeated experiment
[37] = read-out: cell viability (survival rate), TSGH, drug 10 μM, 72 hours, WST-1, OD450 nm

Structure (SMILES) | inhibition effect on different cancer cell lines (cancer cell lines) | viability at 10 µM [1, 18] [%] | viability at 10 µM [1, 19] [%] | viability at 10 µM [2, 20] [%] | viability at 10 µM [2, 21] [%] | viability at 10 µM [3, 22] [%] | viability at 10 µM [3, 23] [%] | viability at 10 µM [4, 24] [%] | viability at 10 µM [4, 25] [%] | viability at 10 µM [5, 26] [%] | viability at 10 µM [5, 27] [%] | viability at 10 µM [6] [%] | viability at 10 µM [7, 28] [%] | viability at 10 µM [7, 29] [%] | viability at 10 µM [8, 30] [%] | viability at 10 µM [8, 31] [%] | viability at 10 µM [9] [%] | viability at 10 µM [10, 32] [%] | viability at 10 µM [10, 33] [%] | viability at 10 µM [11] [%] | further results
COc1cc(NC(C)CCCN)c2ncccc2c1 (centres unmarked) [Primaquine Diphosphate] | significant inhibition effect | 66.8 | 56.4 | 47.4 | 31.4 | 37.1 | 43.9 | 63.1 | 64.3 | 81 | 81.4 | 115 | 81.2 | 72.6 | 38.7 | 44.6 | 35.9 | 61.2 | 55 | 96.8 | viability at 10 µM [12, 34]: 65.7%; viability at 10 µM [12, 35]: 60.3%; viability at 10 µM [13, 36]: 51.5%; viability at 10 µM [13, 37]: 55.5%; viability at 10 µM (T24): 72.6%; viability at 10 µM [14]: 65.4%; viability at 10 µM (BxPC-3): 49.8%; viability at 10 µM (AsPC-1): 66.5%; viability at 10 µM (NIH: OVCAR-3): 60.2%; viability at 10 µM (TOV-21G): 54.8%; viability at 10 µM [15]: 59.9%; viability at 10 µM (U-2OS): 59.6%; viability at 10 µM [16]: 34.1%; viability [17]: 60.9%
CN(C)[C@@H]1C(O)=C(C(N)=O)C(=O)[C@@]2(O)C(O)=C3C(=O)c4c(O)cccc4[C@@](C)(O)[C@H]3C[C@@H]12 [Tetracycline HCl] | significant inhibition effect | 87.1 | 41.1 | 99.7 | 72.8 | 94 | 88.2 | 133 | 55.9 | 106 | 74.1 | 92.2 | 92 | 71.8 | 82.8 | 74.1 | 100 | 79 | 96.1 | 103 | viability at 10 µM [12, 34]: 104%; viability at 10 µM [12, 35]: 42.9%; viability at 10 µM [13, 36]: 103%; viability at 10 µM [13, 37]: 34.1%; viability at 10 µM (T24): 130%; viability at 10 µM [14]: 88.1%; viability at 10 µM (BxPC-3): 77.7%; viability at 10 µM (AsPC-1): 96.7%; viability at 10 µM (NIH: OVCAR-3): 104%; viability at 10 µM (TOV-21G): 81.9%; viability at 10 µM [15]: 79.2%; viability at 10 µM (U-2OS): 53.3%; viability at 10 µM [16]: 93.7%; viability [17]: 115% and 114%
